{"source": "patent US12233088B2", "about": "(Alexion Pharmaceuticals, Inc., priority 2017, dated 2025)", "key": {"[1]": {"system": "patients with Wilson disease", "description": "Changes in neurological status were characterized using the Unified Wilson's Disease Rating Scale (UWDRS).\nPatients were excluded if they had decompensated hepatic cirrhosis, a model for end-stage liver disease (MELD) score >11, or a modified Nazer score (revised King's score)>6.\nThe 24-week, phase 2, open-label study was conducted in Europe and the USA. […] Thereafter, dosing was tailored according to laboratory (including NCC concentrations adjusted for plasma molybdenum) and clinical assessments (maximum daily dose administered: 120 mg).\nDisability and neurological status were assessed using parts II and III, respectively, of the UWDRS at baseline and weeks 4, 8, 12, 18, and 24: Disability (part II): 10-item patient-reported questionnaire (range for total scores: 0-40; higher scores indicate greater disability). Neurological status (part III): 23-item clinician-assessed score (range for total scores: 0-143; higher scores indicate worse neurological status). Data (total scores for UWDRS parts II and III, and AEs) are summarized briefly for context in Results.\nUWDRS neurological status scores at baseline, week 24, and change from baseline to week 24 were calculated for: any individual item experienced by at least 50% of patients; and for item groups (i.e. collections of individual items that could be considered to represent particular patient phenotypes [Table 11]).\nLeast-squares mean (standard error [SE], 95% confidence intervals [CIs]) values were calculated for changes from baseline for UWDRS total scores using a mixed-model repeated-measures analysis; significance was assessed using two-sided p values. To investigate and quantify the relationship between UWDRS total scores for parts II and III, a random coefficients analysis was conducted using each patient's scores from all study visits. Summary statistics were calculated for other outcomes."}, "patients with WD": {"system": "patients with WD", "excerpt": "Example 1 was an open-label multicenter single-arm phase 2 trial conducted in 28 adults with a diagnosis of WD established by a Leipzig score of ≥4.\nData were collected from the first 72 weeks of the extension period for the following parameters: (a) NCC levels, corrected for bound copper contained in tetrathiomolybdate-copper-albumin complexes (NCCcorrected); (b) Liver status, measured using standard laboratory measures and also by Model for End-Stage Liver Disease (MELD) score (based on bilirubin, creatinine and international normalized ratio [INR]); (c) Patient-reported disability using Unified Wilson Disease Rating Scale (UWDRS) part II, and neurological status using UWDRS part III; and (d) Safety is shown below."}, "[2]": {"settings": "of 22 patients, baseline to week 24"}}}
{"smiles": "C[N+](C)(C)CCO.C[N+](C)(C)CCO.[SH-].[SH-].[S]=[Mo]=[S]", "note": "[WTX101, bis-choline tetrathiomolybdate]", "values": [{"measurement": "individuals with deterioration in dystonia item group score", "setting": "[1]; baseline to week 24", "result": "three"}, {"measurement": "individuals with deterioration in gait item group score", "setting": "[1]; baseline to week 24", "result": "six"}, {"measurement": "individuals with deterioration in rigidity item group score", "setting": "[1]; baseline to week 24", "result": "four"}, {"measurement": "mean improvement in UWDRS part III item group total tremor", "setting": "[1]; baseline to week 24, SD 61.7", "result": 34.2, "unit": "%"}, {"measurement": "mean improvement in UWDRS part III item group limb agility (dexterity) and coordination", "setting": "[1]; baseline to week 24, SD 72.2", "result": 29.2, "unit": "%"}, {"measurement": "overall deterioration in UWDRS part III item group gait", "setting": "[1]; baseline to week 24, SD 77.8", "result": 4.2, "unit": "%"}, {"measurement": "overall deterioration in UWDRS part III item group dystonia", "setting": "[1]; baseline to week 24, SD 135.2", "result": 15.0, "unit": "%"}, {"measurement": "overall deterioration in UWDRS part III item group rigidity", "setting": "[1]; baseline to week 24, SD 169.6", "result": 26.9, "unit": "%"}, {"measurement": "patients with any deterioration in limb agility and coordination item group score", "setting": "[1]; [2]", "result": "three"}, {"measurement": "patients with any deterioration in tremor item group score", "setting": "[1]; [2]", "result": "four"}, {"measurement": "mean improvement (% change) in UWDRS part III item alternating hand movements", "setting": "[1]; over 24 weeks", "result": 35.0, "unit": "%"}, {"measurement": "mean improvement (% change) in UWDRS part III item handwriting", "setting": "[1]; over 24 weeks", "result": 51.4, "unit": "%"}, {"measurement": "mean improvement (% change) in UWDRS part III item leg agility", "setting": "[1]; over 24 weeks", "result": 40.8, "unit": "%"}, {"measurement": "mean improvement (% change) in UWDRS part III item postural arm tremor", "setting": "[1]; over 24 weeks", "result": 39.5, "unit": "%"}, {"measurement": "Relationship to the study drug as deemed by the investigator: Acute lower back pain (week 37)", "setting": "patients with WD; SAE after week 24", "result": "Unrelated"}, {"measurement": "Relationship to the study drug as deemed by the investigator: Dizziness (week 113)", "setting": "patients with WD; SAE after week 24", "result": "Possible"}, {"measurement": "Relationship to the study drug as deemed by the investigator: Loss of consciousness (week 113)", "setting": "patients with WD; SAE after week 24", "result": "Possible"}, {"measurement": "Relationship to the study drug as deemed by the investigator: Mania (week 38)", "setting": "patients with WD; SAE after week 24", "result": "Unlikely"}, {"measurement": "Relationship to the study drug as deemed by the investigator: Neutropenia (week 36)", "setting": "patients with WD; SAE after week 24", "result": "Possible"}, {"measurement": "Relationship to the study drug as deemed by the investigator: Exacerbation of WD (week 46)", "setting": "patients with WD; SAE after week 24, likely due to disease progression", "result": "Possible"}, {"measurement": "SAE Acute lower back pain (week 37), number of patients", "setting": "patients with WD; after week 24", "result": 1}, {"measurement": "SAE Dizziness (week 113), number of patients", "setting": "patients with WD; after week 24", "result": 1}, {"measurement": "SAE Exacerbation of WD (week 46), number of patients", "setting": "patients with WD; after week 24", "result": 1}, {"measurement": "SAE Loss of consciousness (week 113), number of patients", "setting": "patients with WD; after week 24", "result": 1}, {"measurement": "SAE Mania (week 38), number of patients", "setting": "patients with WD; after week 24", "result": 1}, {"measurement": "number of patients with ≥1 SAEs", "setting": "patients with WD; after week 24", "result": 5, "unit": "patients"}, {"measurement": "number of serious adverse events", "setting": "patients with WD; after week 24", "result": 6, "unit": "events in"}, {"measurement": "SAE Neutropenia (week 36), number of patients", "setting": "patients with WD; after week 24, grade 1, normalized with dose reduction", "result": 1}, {"measurement": "INR, mean ± standard error", "setting": "patients with WD; beginning of extension period (week 24), N=22", "result": "1.06 ± 0.0"}, {"measurement": "NCCcorrected, mean ± standard error", "setting": "patients with WD; beginning of extension period (week 24), N=22, baseline 3.6 ± 0.4", "result": "0.9 ± 0.2", "unit": "µM"}, {"measurement": "UWDRS part II score, mean ± standard error", "setting": "patients with WD; beginning of extension period (week 24), N=22, baseline 6.6 ± 1.9", "result": "4.1 ± 1.8"}, {"measurement": "MELD score, mean ± standard error", "setting": "patients with WD; beginning of extension period (week 24), N=22, baseline 7.7 ± 0.4", "result": "7.2 ± 0.4"}, {"measurement": "UWDRS part III score, mean ± standard error", "setting": "patients with WD; beginning of extension period (week 24), N=22, baseline 22.8 ± 4.0", "result": "16.6 ± 3.9"}, {"measurement": "Albumin, mean ± standard error", "setting": "patients with WD; beginning of extension period (week 24), N=22, baseline 39.2 ± 1.0", "result": "40.9 ± 0.7", "unit": "g/L"}, {"measurement": "ALT, mean ± standard error", "setting": "patients with WD; beginning of extension period (week 24), N=22, baseline 42.6 ± 6.2", "result": "36.8 ± 3.9", "unit": "U/L"}, {"measurement": "AEs considered unrelated or unlikely related to therapy", "setting": "patients with WD; between week 24 and 72", "result": 89, "unit": "%"}, {"measurement": "AEs mild or moderate", "setting": "patients with WD; between week 24 and 72", "result": 89, "unit": "%"}, {"measurement": "mean INR, albumin, ALT levels and MELD score (liver function)", "setting": "patients with WD; between week 24 and week 72", "result": "improved or unchanged"}, {"measurement": "reversible ALT elevations requiring dose adjustments", "setting": "patients with WD; extension period", "result": "not observed"}, {"measurement": "hemoglobin measurements below the normal range", "setting": "patients with WD; over the follow-up period", "result": 5.2, "unit": "%"}, {"measurement": "patients with low hemoglobin at some point", "setting": "patients with WD; over the follow-up period, none below 100 g/L", "result": 7, "unit": "patients"}, {"measurement": "mean UWDRS disability score and neurological signs score", "setting": "patients with WD; week 24 to 72", "result": "continued improvements"}, {"measurement": "subjects with neutropenia accompanied by mild anemia and low NCC levels", "setting": "patients with WD; week 36 and 72, responded to dose reduction", "result": "Two"}, {"measurement": "decrease in number of reported AEs and SAEs", "setting": "patients with WD; weeks 1-24 to weeks 25-72", "result": "around 50%"}]}
